Results published in patent US20050186287A1, “Copper agonist that binds on the copper binding site of APP and/or exerts an inhibiting effect on the release of amyloid Abeta peptide” (priority 1999, published 2005).

Tests used:
[1] = test system: CHO cells stably transfected with human APP695; assay: Aβ production in CHO cells stably transfected with human APP695, cell variant not given; type: cell-based
Protocol: The employed Zn^2+ concentrations were 10 μM, 50 μM, 100 μM and 200 μM. Thereafter, it was studied from which concentration of Zn(II) the release of the Aβ peptide can be inhibited. The following experiments were carried out for this purpose:
(1) CHO cells which were stably transfected with human APP695 were incubated in MEM medium with the above-mentioned concentrations of Zn(II) (10 to 200 μM in PBS). CHO cells with copper ions (10 to 50 μM in PBS) or without any addition were incubated as controls. The production of Aβ (total), Aβ40 and Aβ42 was determined qualitatively and quantitatively with polyclonal and monoclonal antibodies. APP, Aβ and p3 were detected according to biosynthetic labeling with ^35S methionine as followed. The stably transfected CHO cells, which were incubated as mentioned above with the respective substances, were incubated for four hours with 220 μCi ^35S methionine as follows. […] The protein concentrations were determined beforehand using the protein detection kit from BioRad company and the amount of incorporated radioactivity was determined via scintillation counting. […] The supernatants were incubated with the above mentioned polyclonal APP and Aβ antibodies overnight at 4° C., the immunocomplexes formed were isolated with protein A sepharose and analyzed according to the method described in Ida et al., J. Biol. Chem. 271, pp. 22908-22914.

[2] = test system: Aβ peptide with the human sequence; assay: Aβ production in CNS and blood of transgenic mice given Zn(II); type: in vivo; settings: orally, i.v., i.p., s.c. and i.c.
Protocol: (2) Primary neurons were isolated from transgenic mice which expressed the Aβ peptide with the human sequence, and their Aβ production was determined as described in (1).
(3) The above mentioned Zn(II) concentrations in PBS were applied to transgenic mice orally, i.v., i.p., s.c. and i.c. (see (2)) and the Aβ production was determined in the CNS and in the blood (which was withdrawn from the caudal vein) as outlined above in (1). The serum obtained from the caudal vein of the mice (150-200 μl) is filled using PBS buffer up to a volume of 500 μl and incubated with 5 μg monoclonal antibody WO-2 (Ida et al., supra) and 20 μl of a 1:1 suspension of protein G sepharose overnight at 4° C. on an overhead shaker. The resulting supernatant is then incubated with polyclonal antibodies (22734/6) against APP and the immunocomplexes are analyzed as described above in (1). The Aβ immunocomplexes are separated by means of 12% bis-tricin Novex gels in accordance with the instructions of the manufacturer and the relevant molecular weight range is analyzed after the transfer of the proteins to a nitrocellulose filter (380 mA at 4° C. for 40 minutes) with the monoclonal antibody WO-2 using the ECL technique according to Ida et al. The result here was also that a decrease of the Aβ production could be obtained from a concentration of 50 μM Zn(II).

[3] = test system: APP processing in CHO cells (K1, APP695); assay: APP processing in parental CHO-K1 cells transfected with APP695 (35S-methionine labeling, immunoprecipitation); type: cell-based, human
From the text: (§1) CHO cells were transfected with a c-myc-tagged APP695 vector (Peraus et al., J. Neurosci 17, page 7714-7724 (1997)) or with the expression vector (pcDNA3) by means of a highly efficient calcium phosphate transfection (Chen et al., Biotechniques 6, pages 632-638 (1988). The pSP65 (Invitrogen company) N-tag-APP 695 DNA was cloned into the vector pcDNA3 (Invitrogen/ITC Biotechnology, Heidelberg) using the SmaI or EcoRV cloning sites. The transfection efficiency was checked by means of immunoprecipitation of APP with polyclonal rabbit-anti-c-myc antibody (18/47; produced against the amino acid sequence EQKLISEEDL of the c-myc sequence; from Eurogentec, Seraing, Belgium) and immunoblots using the monoclonal mouse antibody 22C11 (Boehringer Mannheim) in the “ECL” detection system (Amersham, Braunschweig). The parental CHO-K1 cells and the copper-resistant cell variant CUR3 were cultured at 37° C. in “Eagles” medium (BME), to which 2 mM L-glutamine, 0.1 mM proline, 20 mM HEPES and 10% fetal calf serum (Boehringer Ingelheim) were added. The basic copper concentration was 0.8 μM. CUR3 cells were cultured in a medium with 200 μM of copper added.
(§2) Stably transfected CHO cells of a culture dish (60 mm) were treated for 4 hours with 2 ml essential minimum medium (MEM) which contained no methionine (Sigma company, Munich) and was supplemented with 220 μCi [^35S]methionine (Amersham company, Braunschweig) and 5% N2. The conditioned medium (CM) and the cells were collected and immunorepcipitated. The protein concentrations were determined beforehand by means of a “BioRad” protein assay (Bradford et al., Anal. Biochem. 72, pages 248-254 (1976)) or the radioactively labeled proteins were precipitated with 10% trichloroacetic acid (TCA) and the incorporated [^35S]methionine was measured (Beckman LS 6000IC). The cells were lyzed in extraction buffer which contained 50 mM Tris-CHl (pH value 7.5), 150 mM NaCl, 2 mM EDTA, 2% triton X-100, 2% NP40, 10 μg/ml aprotinin and 10 μg/ml leupeptin. For removing cell debris, the lysate and the medium were centrifuged for 10 minutes at 13,000×g and the medium was adjusted to 25 mM Tris-CHl (pH value 8.5), 1 mM PMSF, 10 μg/ml aprotinin, 10 μg/ml leupeptin, 0.5% triton X-100 and 0.5% NP40. The solubilized proteins were diluted in 100 mM Tris-HCl (pH value 7.5), 300 mM NaCl and 4 mM EDTA at a concentration of 1:2. The supernatants were incubated overnight at 4° C. with APP antibodies with end-over-end rotation in an overhead shaker. In some experiments, the resulting supernatants were then analyzed using Aβ antiserum. Immunocomplexes were obtained with protein A sepharose and analzyed as described in (Weidemann et al., Cell 57, pages 115-126 (1989)).
(§3) For detecting APP, polyclonal rabbit antibodies directed against recombinant Fd-APP770 (antiserum 22734/6 against the amino acid residues 18-687 of APP770 or antiserum 23850/6 against the APP amino acid residues 18-491 (FIG. 1) were diluted at a concentration of 1:500 for precipitation. The antisera were produced in a laboratory according to standard methods known to the person skilled in the art. Aβ, p3.5 and […] were recognized by the polyclonal antibodies 830 (diluation 1:50; Aβ, p3.5 and p3 were likewise precipitated) which had been produced against a synthetic peptide corresponding to the Aβ amino acid residues 1-40 (FIG. 1). Aβ and its derivatives were separated by 10-20% Tris-tricin-polyacrylamide gels and APP using 7% Tris-glycin-polyacrylamide gels or 7% Tris-tricin-polyacrylamide gels. For immunoblots cell extracts and extracellular medium were precipitated with 10% TCA, washed with acetone and dissolved in sample buffer. After the electrophoresis, the gels were further processed as described in (Simons et al., J. Neurosci 16, pages 899-908 (1996)) and quantified with the “Fuji-Bas-PhosphorImager” system. The data were expressed as average values +/− standard deviation and, unless indicated otherwise, they represent the result of at least two separate experiments. […]

[4] = test system: APP processing in CHO cells (CUR3, APP695); assay: APP processing in copper-resistant CHO-CUR3 cells transfected with APP695 (35S-methionine labeling, immunoprecipitation); type: cell-based, human
From the text: as §1, §2, §3

[5] = test system: CHO cells; assay: Viability of CHO cells (LDH outflow); type: cell-based; settings: different copper concentrations, 4 h labeling, entire experiment
Protocol: During the labeling period copper chloride or zinc chloride (concentrations: 5 μM to 200 μM) were added to the culturing medium. D(−)-penicillamine (PEN; Sigma), bathocuproin-disulfonate (BC; Aldrich) and 1,10-phenanthroline ([…]; Sigma) were added to the medium up to a final concentration of 100 μM (PEN and BC) or 200 μM (PEN). The viability of the cells was measured by means of the lactate dehydrogenase (LDH) outflow into the culture (41). The LDH outflow was measured as enzyme activity (units/liter) after 2 and 4 hours in the medium of 70% confluent monolayers of CHO cells in “Eagle” medium modified according to Dulbecco (DMEM)
For investigating the regulation of the APP metabolism by copper ions, CHO cells stably transfected with APP695 were labeled for 4 hours with ^35S-labeled methionine in the presence of different copper concentrations and following immunoprecipitation with polyclonal antibodies which detect APP (22734/6) or detect Aβ and p3 ([…]), the secretions of the APP ectodomain, of Aβ and p3 were measured. […] APP695 derivatives released in conditioned medium were detected as bands of 105 and 97.5 kDa (FIG. 3b), they probably differing in that the upper band has a higher content of sialic acids.

Structure (SMILES): [Ca+2] [Ca(II)]
- Aβ production ([1]; above 200 μM, detection limit reached): no further decrease

Structure (SMILES): [Cl-].[Cl-].[Zn+2] [Zn(II), zinc chloride]
- Zn(II) concentration from which a decrease of the Aβ production could be obtained [2]: ≥ 50 µM
- Zn(II) concentration from which Aβ production could be reduced drastically ([1]; CHO cells, MEM medium, 10 to 200 μM Zn(II) tested): ≥ 50 µM
- secretion of APP ([3]; CHO-K1 cells, Zn(II) concentrations above 50 μM): lowered secretion
- Aβ production reduced by ([3]; K1 cells, 50 μM Zn(II)): 20%
- Aβ production reduced by ([3]; K1 cells, 200 μM Zn(II)): 60%
- Aβ production reduced by ([4]; 50 μM Zn(II)): 60%
- Aβ production reduced by ([4]; 100 μM Zn(II)): 90%
- Aβ production reduced by ([4]; 200 μM Zn(II)): 99%
- secretion of APP ([4]; Zn(II) concentrations above 50 μM): lowered secretion

Structure (SMILES): [Cl][Cu][Cl] [Cu(II), copper chloride]
- viability of the cell lines [5]: no reduced viability
- Aβ, [%] increase/decrease as compared to standard conditions ([3]; K1 cells, 10 μM Cu(II), 4 h): 20%
- p3, [%] increase/decrease as compared to standard conditions ([3]; K1 cells, 10 μM Cu(II), 4 h): 154%
- APP695, [%] increase/decrease as compared to standard conditions ([3]; K1 cells, 10 μM Cu(II), 4 h, cell lysate (cAPP)): 295%
- SAPP695c, [%] increase/decrease as compared to standard conditions ([3]; K1 cells, 10 μM Cu(II), 4 h, soluble APP695 in medium): 475%
- sAPP751/770 level ([3]; K1 cells, 10 μM copper, endogenous KPI-containing isoforms): 275%
- Aβ levels ([3]; K1 cells, Cu(II) concentrations below the basal level (0.8 μM)): increased drastically
- Cu(II) concentration at which the increase in sAPP695 reached a maximum ([3]; K1 cells, conditioned medium): 10 µM
- Aβ production ([3]; K1 cells, increasing copper concentrations): below the detection limit
- APP695, [%] increase/decrease as compared to standard conditions ([4]; 50 μM Cu(II), 4 h, cell lysate (cAPP)): 550%
- p3, [%] increase/decrease as compared to standard conditions ([4]; 50 μM Cu(II), 4 h, medium): 270%
- Aβ, [%] increase/decrease as compared to standard conditions ([4]; 50 μM Cu(II), 4 h, medium, % of basal concentration): 20%
- SAPP695c, [%] increase/decrease as compared to standard conditions ([4]; 50 μM Cu(II), 4 h, soluble APP695 in conditioned medium, relative to basal medium (0.8 μM Cu)): 265%
- Aβ levels ([4]; Cu(II) concentrations below the basal level (0.8 μM)): increased drastically
- Aβ concentration ([4]; above 100 μM copper): hardly detectable
- secretion of p3 ([4]; between 20 μM and 50 μM copper in the medium): 270%
- Cu(II) concentration at which the increase in sAPP695 reached a maximum ([4]; conditioned medium): 50 µM
- percentage of cAPP ([4]; copper concentration of 50 μM exceeded in the medium): 550%
- p3.5 concentration ([4]; increasing copper (50 μM and above)): strongly lowered
